Experiment [1] relates to VSMCs. Put plainly: VSMC proliferation assay by BrdU incorporation. The experiment is classed as cell-based, human. The following applies: for BrdU incorporation: control 0.86±0.03. The protocol: VSMCs were grown in 96-well plates or 8-well chamber slides and incubated with 10^−7 M of MPA (Sigma-Aldrich) or ETO (Organon) or P4 (Sigma-Aldrich) or vehicle±rCCL2 (R&D Systems)±STAT1 inhibitor, 5′-methyl-thioadenosine (MTA; EMD Millipore) (19) for 48 or 72 h. VSMCs were then analyzed for apoptosis by an ELISA based apoptosis kit (Roche) or cleaved-caspase 3 immunostaining. VSMC proliferation was measured by BrdU incorporation Kit (Cell Signaling). (See further details in SI Materials and Methods).
VSMCs were thawed and cultured in T-75 cell culture flasks in medium 231 (M231; Life Technologies) with smooth muscle growth supplement (5% FBS; 2 ng/mL human basic fibroblast growth factor, 0.5 ng/mL human epidermal growth factor, 5 ng/mL heparin, 0.2 μg/mL insulin and 5 μg/mL BSA; Life Technologies) with 100 U/mL penicillin, 100 μg/mL streptomycin, and 0.25 μg/mL fungizone. Confluent VSMCs were washed twice with 1×PBS to remove residual serum, and then passaged (5,000 cells per well) in 96-well plates and incubated in parallel in M231 with 1% charcoal striped FBS with 0.1% ethanol (vehicle, control), 10^−7 M MPA (Sigma-Aldrich), 10^−7 M ETO (Organon), or 10^−7 M P4 (Sigma-Aldrich)±rCCL2 (monocyte chemotactic protein-1; R&D Systems)±STAT1 inhibitor, 5′-methyl-thioadenosine (MTA; EMD Millipore) for 48 or 72 h.
BrdU (Cell Signaling) 1× in 100-μL M231 was added to each well during the final 24 h of incubation. At the end of 48- or 72-h incubation period, medium was removed and the wells washed twice with ice-cold PBS. VSMC proliferation was measured using BrdU cell proliferation Kit (Cell Signaling) at room temperature. Cells was incubated in 100 μL per well of the fixing/denaturing solution for 30 min, and then replaced by 100 μL per well BrdU detection antibody solution for 1 h. Following three rinses with wash buffer, plates were incubated in HRP-conjugated secondary antibody (100 μL per well) for 30 min. After three additional rinses with wash buffer, tetramethylbenzidine substrate solution (100 μL per well) was added for 20 min and the reaction stopped by adding 100 μL per well STOP solution. Absorbance was measured at 450 nm using Spectra Max190 microplate reader (Molecular Devices) to detect BrdU incorporation in each well.

For experiment [2], the system named is VSMCs. Description: Transwell insert migration assay. The class given is cell-based, human. The following applies: coincubation with 10 ng/mL rCCL2, 12 h. The protocol:
VSMCs (75,000 cells/200 μL) were suspended in M231 containing 1% charcoal striped FBS and either 0.1% ethanol (vehicle control) or the corresponding steroids and seeded onto insert wells (transwell filter with 12-μm pores; EMD Millipore). The inserts were then placed in 24-well plates containing 500 μL M231 with 1% charcoal striped FBS. After 12 h, cells remaining on the upper surface of the filter were removed with a cotton swab. Migrated cells were trypsinized, centrifuged, and resuspended in 200 μL of M231 medium. The cell suspensions were mixed with 200 μL 10% ethanol containing 0.4% Trypan blue dye and the live cell number was counted by Countess Automated Cell Counter (Invitrogen). See further details in SI Materials and Methods.
Cultured VSMCs were grown in T-75 cell culture flasks in M231 (Life Technologies) with smooth muscle growth supplement (Life Technologies) with 100 U/mL penicillin, 100 μg/mL streptomycin, 0.25 μg/mL fungizone. Confluent VSMCs were washed twice with 1×PBS to remove residual serum, and then trypsinized, resuspended (75,000 cells per 200 μL per well) in M231 with 1% charcoal striped FBS with 0.1% ethanol (vehicle, control), 10^−7 M MPA (Sigma-Aldrich), 10^−7 M ETO (Organon), or 10^−7 M P4 (Sigma-Aldrich)±rCCL2 (R&D Systems) and seeded on insert wells (transwell filter with 12-μm pores; EMD Millipore), which were then placed in 24-well plates containing 500 μL M231 with 1% charcoal striped FBS. After 12 h, cells remaining on the upper surface of the filter were removed with a cotton swab. Migrated cells attached to the lower surface of each insert or to the surface of lower wells were collected by trypsinization, followed by centrifugation and resuspension in 200 μL of M231 medium. The cell suspensions were mixed with 200 μL 10% ethanol containing 0.4% Trypan blue dye (selectively stains only dead cells blue, whereas live cells with intact cell membranes remain unstained) for 5 min. A mixture of 100 μL M231 and 100 μL 10% ethanol containing 0.4% Trypan blue dye was used as a negative control. To detect live cell numbers, 10 μL of final cell/Trypan blue dye suspension from each treatment condition was pipetted into Countess Cell Counting Chamber Slide and counted by using Countess Automated Cell Counter (Invitrogen). The counting procedure was performed in duplicate.

The subject of experiment [3] is endometrial VSMCs. Put plainly: αSMA and PCNA double-immunostaining of endometrium of oophorectomized guinea pigs (OVX-GPs). The experiment is classed as in vivo, guinea pig. The note with it: 21-d time-release pellets, mean±SEM. The source says:
After receiving written informed consent at New York University under Institutional Review Board approval, paraffin sections were derived from banked paired endometrial tissues obtained before and after Depo therapy by […] biopsy from each reproductive age woman with regular menstrual cycles during the secretory phase (n=6). Based on an established animal model for LAPC-induced AUB in humans (9), nulliparous adult female pigmented GPs (weighing 525-775 g) were used in experimental procedures conforming to National Health and Medical Research Council Guidelines of Australia and approved by the Animal Ethics Committee of The University of Western Australia. GPs (n=24) were subjected to bilateral OVX and given subcutaneous 21-d time-release pellets (Innovative Research of America) containing MPA (50 mg/d; n=6) or 17β-Estradiol (E2) (0.1 mg/d; n=6), both MPA and E2 (n=6), or no pellets (n=6). On day 20 of exposure to the pellets, GPs were killed with pentobarbital and uterine tissues fixed in 10% formalin and processed for paraffin embedding. In vitro experiments used aortic VSMCs from premenopausal women (n=2) (Life Technologies). Paraffin sections (5 μm) from paired pre- vs. post-Depo treated human or GP endometria were deparaffinized, boiled in citrate buffer (pH: 6.0) and then incubated in methanol containing 3% H2O2. Following 10% normal horse serum blocking (Vector Labs), slides were incubated overnight at 4° C. with mouse anti-PCNA monoclonal antibody (EMD Millipore). After several rinses in Tris-buffered saline containing 0.1% tween-20 (TBS-T; pH 7.6) slides were then incubated with biotinylated anti-mouse IgG (Vector Labs) for 30 min, then with a streptavidin-peroxidase complex (Elite ABC kit; Vector Labs) for 30 min and with diaminobenzidine (DAB; Vector Labs) for 3 min. […] Slides were counterstained by Hematoxylin and evaluated by histological scoring (HSCORE), as described previously (34). (See details for HSCORE evaluation for αSMA immunoreactivity and PCNA quantitation in SI Materials and Methods). Staining intensity for α-SMA was semiquantitatively evaluated by Q:1 HSCORE (1). […] An HSCORE value was determined for each specimen by using the formula HSCORE=ΣPi (i+1), where Pi is the percentage of stained cells in each intensity category (i.e., i=1, 2, or 3). Quantitation of PCNA immunostaining was determined by counting the number of PCNA^+ (brown) and PCNA^- cell nuclei (blue) in VSMCs (αSMA immunostained cells) and obtaining the ratio of numbers of PCNA^+ cell nuclei to total αSMA^+ cells. For each slide, three different fields were evaluated microscopically at 200× magnification. Slides were evaluated at different times by two investigators blinded to tissue source, and the average HSCORE or percentage of cells with PCNA^+ nuclei to total αSMA^+ cells used.

In the case of “rCCL2: recombinant chemokine (C-C motif) ligand 2 (monocyte chemotactic protein-1; R&D Systems)”, the “effect on inhibition of BrdU incorporation by ETO” value in experiment [1] (10 ng/mL rCCL2 added to 10^−7 M ETO) is recorded as “reversed”. Further, the “effect on inhibition of BrdU incorporation by MPA” value in experiment [1] (10 ng/mL rCCL2 added to 10^−7 M MPA) is “reversed”. Moreover, in experiment [1] (rCCL2 1 ng/mL), the BrdU incorporation came out at 1.05±0.05. The BrdU incorporation in experiment [1] (rCCL2 10 ng/mL) turned out to be 1.21±0.05. In experiment [2], the “effect on inhibition of VSMC migration by ETO” value was “did not reverse”, the “effect on inhibition of VSMC migration by MPA” value is “partially reversed” and the “effect on inhibition of VSMC migration by P4” value is “did not reverse”.
Turning to `C[C@]12CC[C@@H]3c4ccc(O)cc4CC[C@H]3[C@@H]1CC[C@@H]2O` [E2, 17β-Estradiol], in experiment [3] (n=6, control 11.2%±2.3), the “PCNA+ endometrial VSMCs” value is given as 36.8%±2.7. Besides, in experiment [3] (n=6, control 135.2±26.0), the “αSMA HSCORE” value was 212.7±14.6.
On to 5′-methyl-thioadenosine [MTA], for which, in experiment [1] (100 μm MTA with 10 ng/mL rCCL2 and MPA or ETO), the “effect on rCCL2 reversal of progestin-inhibited BrdU incorporation” value was “abolished”.

For the origin of these results see patent US20180078615A1, “USE OF CCL2 TO INHIBIT ABNORMAL UTERINE BLEEDING” (UNIVERSITY OF SOUTH FLORIDA, priority 2015, published 2018).
